From patent publication US20180206501A1, “CONTROLLING DISEASES AND INSECTS IN PLANTS” (priority 2017, published 2018)

Columns and labels:
[1] = test system: Escherichia coli (E. coli); assay: Microbial testing, standard pour plate count; type: cell-based
Protocol: The purpose of this study was to evaluate the effectiveness of test materials labeled #6, #7 and #8, in killing or reducing Escherichia coli (E. coli). The standard pour plate count test method was used to evaluate Percent Reduction of Colony Forming Units (CFU).
The E. coli (lot number 168756) was purchased from Quanti-Cult™ and is derived from original ATCC® stock cultures. They are received dehydrated. A viable streak plate was colonized from this culture. One colony was transferred to 5 ml of sterile Tryptic Soy Broth (lot # A3303) and incubated overnight. Antimicrobial activity was determined by comparing results from the test sample to simultaneously run controls or from the T0. The concentration of the suspension was determined using serial dilution and plate counts to determine the amount of Colony Forming Units (CFU's)/ml of suspension.
The materials tested in this study are described in the Purpose section. Sterile 0.3 mM KH2PO4 buffer was inoculated to a concentration of ˜1.0-3.0×10^5 CFU/ml. A To plate originated from the inoculated buffer for quantification and prepared 1:100 dilution to insure that viable inoculum was applied in the test system. The test materials were formulated in 20×150 […] test tubes. Aliquots of 0.3 grams of each of the materials (#6, #7 and #8) were added to sterile test tubes. […]

[2] = Appearance of the solution in water pH = 10 at 24 hours; type: physicochemical; conditions: 50% stock plus water pH = 10
Cercospora = assay: Laboratory over-spray of sugar beet leaf cultures on agar incubation plates; type: cell-based; conditions: L-1 and Control leaf cultures; 0.5% solution with 5211 surfactant in water; 24 hours incubation
Protocol: The initial leaf cuttings from L-1 to L-3 were used for additional evaluations. […] All of the leaves were very green, showing no signs of Cercospora. When the leaves were cultured and incubated (three plates per sample), the plate counts on all of the samples were too numerous to count (TNTC) indicating signs of Cercospora infection.
The control sample was taken from a known infected control sample. In addition to the normal culturing process, leaf samples from L-1 and the Control were treated in the laboratory. This involved placing the leaf culture onto the agar incubation plate, over spraying the plate with a 0.5% solution Ztrex 72 and 5211 surfactant in water. The plates were further incubated for 24 hours.
Our Control sample was obtained from Michigan Sugar Company, Bay City, Mich. and was used for all of the initial lab studies.

| SMILES | Application, microbial kill [1] | Plate count ([1]; 0.3 grams in 5 ml Tryptic Soy Broth, 1×10^5 CFU E. coli, 48 hours, T0 9.6×10^4 CFU/ml) [CFU/ml] | Solution @ 24 hours [2] | Evidence of Cercospora on the incubation plate (Cercospora) |
| --- | --- | --- | --- | --- |
| CO[Si](CCc1ccc(S(=O)(=O)Cl)cc1)(OC)OC [#8, 2-(4-chlorosulfonylphenyl)ethyltrimethoxysilane] | 99.99 | 16 | Clear |  |
| CCCCCCCCCCCCCCCCCC[N+](C)(C)CCC[Si](OC)(OC)OC.[Cl-] [Ztrex 72, (CH3O) Si (CH2)N^+ (CH3)2 (C18H37) Cl^−] |  |  |  | no evidence of Cercospora |
